In publication PMC10192568, “Comparison of pharmacokinetic profiles of seven major bioactive components in normal and non-alcoholic fatty liver disease (NAFLD) rats after oral administration of Ling-Gui-Zhu-Gan decoction by UPLC-MS/MS” (Frontiers in Pharmacology, 2023):
Like-named read-outs stand apart in the source and are kept apart here.

Tests used:
[1] = Stability of the seven components in rat plasma QC samples; format: physicochemical; conditions: n = 6; for Stability during 24 h at 4°C, RE: auto sampler
Protocol: Stability refers to the ability of the components to retain their chemical properties in the matrix. To analyze the stability of all components in the plasma, six replicates of QC samples at three concentrations were hereby prepared under each condition. The stability of the QC samples at three concentrations was analyzed under different storage conditions: −80°C for 30 days, after three freeze–thaw cycles, and 24 h in an auto sampler at 4°C.

[2] = Pharmacokinetic study of LGZGD components in plasma of normal and NAFLD rats after oral administration (UPLC-MS/MS); format: in vivo, Male Sprague–Dawley rats; conditions: for AUC0-∞ value decreased / C max value decreased: NAFLD rats compared with normal rats; for AUC(0-inf) / AUC(0-t) / Cmax / Tmax / half-life / MRT last: Sprague-Dawley, rat; for MRT last: read-out: MRT0-t
Protocol: Male Sprague–Dawley rats, weighing 200–220 g, SPF grade, were purchased from Shanghai Sippr-BK laboratory animal Co. Ltd. (Shanghai, China) and raised in the Laboratory Animal Center of Shanghai University of Traditional Chinese Medicine. The rats were kept in an environmentally controlled condition: on a 12:12 h light–dark cycle (lights on at 7:00 a.m.) with regulated temperature and humidity, at a temperature of 22°C–24°C and a relative humidity of 60–65%. In the experiment, the rats in the normal group were fed a certified standard rat diet and tap water, while those in the model group were fed a high-fat diet for 8 weeks to construct the NAFLD model (high-fat diet: 2% cholesterol, 10% lard, 0.1% sodium cholate, 10% yolk powder, and 77.9% normal diet). The animal experiment program was approved by the Animal Committee of Shanghai University of Traditional Chinese Medicine (License No.: PZSHUTCM201016001).
An Agilent 1290 UPLC system was combined with an Agilent 6460 series MS/MS system (Agilent Technologies, Santa Clara, CA, United States) to quantify the analytes in the ESI-positive ionization mode. The mass spectrum conditions were as follows: a capillary voltage of 4,000 V; a gas flow rate of 10 L/min; a nebulizer of 30 psi; a gas temperature of 350°C; and a Delta EMV(+) of 200 V. Five microliters of the samples was injected into an Agilent SB-C18 column (2.1 mm × 50 mm, 1.8 μm particles). The analytes were separated using the gradient elution method, and the mobile phase was composed of water (0.05% V/V formic acid) (A) and acetonitrile (B) at a flow rate of 0.4 mL/min (0–1 min, 10–10% B; 1–5 min, 10–90% B; 5–7 min, 90–90% B; and 7–7.1 min, B 90–10%; rebalance for 2 min).
A plasma sample of 50 µL was placed in a 1.5 mL centrifuge tube with 10 µL of schisandrin (IS) solution (50 ng/mL) and mixed for 5 min. The samples were successively extracted with 500 µL of ethyl acetate and treated with 250 µL of methanol, which were then mixed for 5 min and centrifuged at 4°C for 10 min (at 18,000 rpm). All the supernatant was absorbed into another 1.5 mL centrifuge tube, dried under a gentle stream of nitrogen at 37°C, and then added with 50 µL of 50% methanol for reconstruction. After being centrifuged at 4°C for 10 min (at 18,000 rpm), 5 µL of the supernatant was extracted and injected into a chromatographic column for analysis, and the chromatograms were recorded.
The rats were randomly divided into the normal group and the model group. According to the preliminary experiment, the dose was adjusted to about eight times the normal dose ([Gu, 2020]; [Li et al., 2023]). […] The animal research program was approved by the Animal Committee of Shanghai University of Traditional Chinese Medicine. At 0, 0.083, 0.25, 0.5, 0.75, 1, 2, 4, 6, 8, 10, 12, 24, and 48 h after dosing, 150 µL blood samples were collected from the rats' orbital venous plexus into centrifuge tubes containing 10 IU of sodium heparin. After being centrifuged at 5,000 rpm (4°C) for 10 min, the plasma was transferred to 1.5 mL polypropylene tubes and stored at −80°C until the plasma samples were analyzed.
Important pharmacokinetic parameters, which included the maximum plasma concentration (C max), time to maximum concentration (T max), half-life (t 1/2), area under the curve (AUC0-t), and total area under the curve (AUC0-∞), were hereby calculated using the DAS 3.2.8 software. Meanwhile, the pharmacokinetic data of the normal and model rats were compared using the SPSS software (version 21.0). Besides, Spearman rank bivariate correlation coefficient was used to determine the correlation between AUC values and UGT1A1 and nine other transporters. All the calculated data were expressed as mean ± SD. When p < 0.05, the difference was considered significant and statistically significant; and when p < 0.01 or <0.001, the difference was considered very significant.

[3] = NAFLD rats compared with the normal group, oral LGZGD
[4] = male, plasma, po, 23 g/kg, Model (NAFLD) group, male SD rats, oral LGZGD extract 23 g/kg, plasma, mean ± SD, n = 6
[5] = male, plasma, po, 23 g/kg, Normal group, male SD rats, oral LGZGD extract 23 g/kg, plasma, mean ± SD, n = 6
[6] = Normal group, male SD rats, oral LGZGD extract 23 g/kg, plasma, mean ± SD, n = 6

C=C1CCC[C@]2(C)C[C@]3(O)OC(=O)C(C)=C3C[C@@H]12 [Atractylenolide III, atractylenolide III]
Stability during 24 h at 4°C, RE ([1]; high QC level): −4.0% | Stability during 24 h at 4°C, RE ([1]; low QC level): 6.4% | Stability during 24 h at 4°C, RE ([1]; medium QC level): 5.2% | Three freeze–thaw cycles, RE ([1]; high QC level): −3.8% | −80°C for 30 days, RE ([1]; high QC level): 14.1% | Three freeze–thaw cycles, RE ([1]; low QC level): 13.3% | −80°C for 30 days, RE ([1]; low QC level): −4.4% | Three freeze–thaw cycles, RE ([1]; medium QC level): −9.5% | −80°C for 30 days, RE ([1]; medium QC level): −3.5% | AUC0-∞ value decreased ([2]; oral LGZGD): 70.8% | C max value decreased ([2]; oral LGZGD): 35.2% | MRT0-t prolonged [2, 3]: 31.3% | AUC(0-inf) [2, 4]: 166 ± 45.1 ng·h/mL | AUC(0-t) [2, 4]: 117 ± 16.1 ng·h/mL | Cmax [2, 4]: 7.9 ± 1.3 ng/mL | Tmax [2, 4]: 0.6 ± 0.1 h | half-life [2, 4]: 18.3 ± 1.3 h | MRT last [2, 4]: 19.3 ± 2.9 h | AUC(0-inf) [2, 5]: 568 ± 235 ng·h/mL | AUC(0-t) [2, 5]: 352 ± 21.5 ng·h/mL | Cmax [2, 5]: 12.2 ± 3.4 ng/mL | Tmax [2, 5]: 0.7 ± 0.1 h | half-life [2, 5]: 10.2 ± 4.4 h | MRT last [2, 5]: 14.7 ± 1.5 h

O=C1C[C@@H](c2ccc(O[C@@H]3O[C@H](CO)[C@@H](O)[C@H](O)[C@H]3O)cc2)Oc2cc(O)ccc21 [Liquiritin, liquiritin]
Stability during 24 h at 4°C, RE ([1]; high QC level): −3.0% | Stability during 24 h at 4°C, RE ([1]; low QC level): 1.4% | Stability during 24 h at 4°C, RE ([1]; medium QC level): 5.4% | Three freeze–thaw cycles, RE ([1]; high QC level): 4.1% | −80°C for 30 days, RE ([1]; high QC level): −1.2% | Three freeze–thaw cycles, RE ([1]; low QC level): 10.5% | −80°C for 30 days, RE ([1]; low QC level): −4.1% | Three freeze–thaw cycles, RE ([1]; medium QC level): −1.8% | −80°C for 30 days, RE ([1]; medium QC level): 3.1% | AUC0-∞ value decreased ([2]; oral LGZGD): 53.7% | C max value decreased ([2]; oral LGZGD): 63.8% | MRT0-t prolonged [2, 3]: 31.2% | t 1/2 [2, 6]: 5.2 ± 2.5 h | AUC(0-inf) [2, 4]: 53400 ± 22100 ng·h/mL | AUC(0-t) [2, 4]: 52800 ± 22300 ng·h/mL | Cmax [2, 4]: 3740 ± 991 ng/mL | Tmax [2, 4]: 6.8 ± 4.1 h | half-life [2, 4]: 6 ± 3.4 h | MRT last [2, 4]: 10.1 ± 1.3 h | AUC(0-inf) [2, 5]: 115000 ± 32900 ng·h/mL | AUC(0-t) [2, 5]: 115000 ± 32900 ng·h/mL | Cmax [2, 5]: 10300 ± 1850 ng/mL | Tmax [2, 5]: 4.8 ± 1.1 h | MRT last [2, 5]: 7.7 ± 1.6 h

CC1(C)[C@@H](O[C@H]2O[C@H](C(=O)O)[C@@H](O)[C@H](O)[C@H]2O[C@@H]2O[C@H](C(=O)O)[C@@H](O)[C@H](O)[C@H]2O)CC[C@]2(C)[C@H]3C(=O)C=C4[C@@H]5C[C@@](C)(C(=O)O)CC[C@]5(C)CC[C@@]4(C)[C@]3(C)CC[C@@H]12 [Glycyrrhizic acid, glycyrrhizic acid]
Stability during 24 h at 4°C, RE ([1]; high QC level): −3.3% | Stability during 24 h at 4°C, RE ([1]; low QC level): −1.6% | Stability during 24 h at 4°C, RE ([1]; medium QC level): −5.6% | Three freeze–thaw cycles, RE ([1]; high QC level): 9.7% | −80°C for 30 days, RE ([1]; high QC level): 2.7% | Three freeze–thaw cycles, RE ([1]; low QC level): −5.9% | −80°C for 30 days, RE ([1]; low QC level): −1.0% | Three freeze–thaw cycles, RE ([1]; medium QC level): −3.7% | −80°C for 30 days, RE ([1]; medium QC level): 1.7% | AUC0-∞ value decreased ([2]; oral LGZGD): 70.8% | C max value decreased ([2]; oral LGZGD): 77.4% | AUC(0-inf) [2, 4]: 40800 ± 25000 ng·h/mL | AUC(0-t) [2, 4]: 40700 ± 25100 ng·h/mL | Cmax [2, 4]: 2240 ± 1200 ng/mL | Tmax [2, 4]: 8.1 ± 4.9 h | half-life [2, 4]: 5.4 ± 1.4 h | MRT last [2, 4]: 16 ± 8 h | AUC(0-inf) [2, 5]: 82700 ± 10000 ng·h/mL | AUC(0-t) [2, 5]: 81000 ± 10500 ng·h/mL | Cmax [2, 5]: 6420 ± 2240 ng/mL | Tmax [2, 5]: 10.4 ± 1.7 h | half-life [2, 5]: 6.3 ± 3 h | MRT last [2, 5]: 13.7 ± 3.3 h

O=C(/C=C/c1ccc(O[C@@H]2O[C@H](CO)[C@@H](O)[C@H](O)[C@H]2O)cc1)c1ccc(O)cc1O [Isoliquiritin, isoliquiritin]
Stability during 24 h at 4°C, RE ([1]; high QC level): −12.7% | Stability during 24 h at 4°C, RE ([1]; low QC level): 1.3% | Stability during 24 h at 4°C, RE ([1]; medium QC level): 11.0% | Three freeze–thaw cycles, RE ([1]; high QC level): 3.9% | −80°C for 30 days, RE ([1]; high QC level): 4.0% | Three freeze–thaw cycles, RE ([1]; low QC level): −6.8% | −80°C for 30 days, RE ([1]; low QC level): −1.1% | Three freeze–thaw cycles, RE ([1]; medium QC level): −3.0% | −80°C for 30 days, RE ([1]; medium QC level): −2.1% | AUC0-∞ value decreased ([2]; oral LGZGD): 65.8% | C max value decreased ([2]; oral LGZGD): 31.1% | MRT decreased [2, 3]: 21.7% | Tmax [2, 6]: 0.6 ± 0.1 h | AUC(0-inf) [2, 4]: 56.9 ± 10.8 ng·h/mL | AUC(0-t) [2, 4]: 51.9 ± 7.8 ng·h/mL | Cmax [2, 4]: 4.2 ± 0.8 ng/mL | half-life [2, 4]: 13.1 ± 7.5 h | MRT last [2, 4]: 15.5 ± 1.8 h | AUC(0-inf) [2, 5]: 166 ± 10.5 ng·h/mL | AUC(0-t) [2, 5]: 108 ± 21.2 ng·h/mL | Cmax [2, 5]: 6.1 ± 1.8 ng/mL | half-life [2, 5]: 9.2 ± 4.4 h | MRT last [2, 5]: 19.8 ± 1.7 h

CC1(C)[C@@H](O)CC[C@]2(C)[C@H]3C(=O)C=C4[C@@H]5C[C@@](C)(C(=O)O)CC[C@]5(C)CC[C@@]4(C)[C@]3(C)CC[C@@H]12 [Glycyrrhetinic acid, glycyrrhetinic acid]
Stability during 24 h at 4°C, RE ([1]; high QC level): −8.9% | Stability during 24 h at 4°C, RE ([1]; low QC level): 5.2% | Stability during 24 h at 4°C, RE ([1]; medium QC level): 6.7% | Three freeze–thaw cycles, RE ([1]; high QC level): 2.2% | −80°C for 30 days, RE ([1]; high QC level): 2.6% | Three freeze–thaw cycles, RE ([1]; low QC level): −0.4% | −80°C for 30 days, RE ([1]; low QC level): −5.2% | Three freeze–thaw cycles, RE ([1]; medium QC level): −7.7% | −80°C for 30 days, RE ([1]; medium QC level): −4.9% | AUC0-∞ value decreased ([2]; oral LGZGD): 50.6% | C max value decreased ([2]; oral LGZGD): 65.0% | MRT0-t prolonged [2, 3]: 44.4% | AUC(0-inf) [2, 4]: 26200 ± 14400 ng·h/mL | AUC(0-t) [2, 4]: 25600 ± 14800 ng·h/mL | Cmax [2, 4]: 1650 ± 1170 ng/mL | Tmax [2, 4]: 13.2 ± 6.3 h | half-life [2, 4]: 8.9 ± 4.5 h | MRT last [2, 4]: 15.6 ± 2.3 h | AUC(0-inf) [2, 5]: 89600 ± 28600 ng·h/mL | AUC(0-t) [2, 5]: 88200 ± 27200 ng·h/mL | Cmax [2, 5]: 7280 ± 2080 ng/mL | Tmax [2, 5]: 9.3 ± 1.6 h | half-life [2, 5]: 6 ± 2.1 h | MRT last [2, 5]: 10.8 ± 1.1 h
